Columns and labels:
[1] = biological target: EGFR (d746-750) (Homo sapiens (Human), UniProt P00533, DEL746-750); assay: Biochemical EGFR inhibition assay, EGFR (d746-750); settings: Caliper mobility shift; 1.0 mM ATP or ATP Km; read-out: Enz EGFR_Exon19-del746-750 IC50
[2] = biological target: pEGFR (Tyr1068) in PC-9 cells (Ex19Del) (Homo sapiens (Human), UniProt P00533, DEL746-750); assay: PC-9 pEGFR AlphaLISA assay; assay type: cell-based; settings: 4 hours incubation, p-EGFR (Tyr1068) AlphaLISA, read-out: Ext pEGFR_PC-9 Ex19Del IC50
Chain of pEGFR (Tyr1068) in PC-9 cells (Ex19Del) (P00533 other isoform, or with tags, fused parts or gaps del 746-750): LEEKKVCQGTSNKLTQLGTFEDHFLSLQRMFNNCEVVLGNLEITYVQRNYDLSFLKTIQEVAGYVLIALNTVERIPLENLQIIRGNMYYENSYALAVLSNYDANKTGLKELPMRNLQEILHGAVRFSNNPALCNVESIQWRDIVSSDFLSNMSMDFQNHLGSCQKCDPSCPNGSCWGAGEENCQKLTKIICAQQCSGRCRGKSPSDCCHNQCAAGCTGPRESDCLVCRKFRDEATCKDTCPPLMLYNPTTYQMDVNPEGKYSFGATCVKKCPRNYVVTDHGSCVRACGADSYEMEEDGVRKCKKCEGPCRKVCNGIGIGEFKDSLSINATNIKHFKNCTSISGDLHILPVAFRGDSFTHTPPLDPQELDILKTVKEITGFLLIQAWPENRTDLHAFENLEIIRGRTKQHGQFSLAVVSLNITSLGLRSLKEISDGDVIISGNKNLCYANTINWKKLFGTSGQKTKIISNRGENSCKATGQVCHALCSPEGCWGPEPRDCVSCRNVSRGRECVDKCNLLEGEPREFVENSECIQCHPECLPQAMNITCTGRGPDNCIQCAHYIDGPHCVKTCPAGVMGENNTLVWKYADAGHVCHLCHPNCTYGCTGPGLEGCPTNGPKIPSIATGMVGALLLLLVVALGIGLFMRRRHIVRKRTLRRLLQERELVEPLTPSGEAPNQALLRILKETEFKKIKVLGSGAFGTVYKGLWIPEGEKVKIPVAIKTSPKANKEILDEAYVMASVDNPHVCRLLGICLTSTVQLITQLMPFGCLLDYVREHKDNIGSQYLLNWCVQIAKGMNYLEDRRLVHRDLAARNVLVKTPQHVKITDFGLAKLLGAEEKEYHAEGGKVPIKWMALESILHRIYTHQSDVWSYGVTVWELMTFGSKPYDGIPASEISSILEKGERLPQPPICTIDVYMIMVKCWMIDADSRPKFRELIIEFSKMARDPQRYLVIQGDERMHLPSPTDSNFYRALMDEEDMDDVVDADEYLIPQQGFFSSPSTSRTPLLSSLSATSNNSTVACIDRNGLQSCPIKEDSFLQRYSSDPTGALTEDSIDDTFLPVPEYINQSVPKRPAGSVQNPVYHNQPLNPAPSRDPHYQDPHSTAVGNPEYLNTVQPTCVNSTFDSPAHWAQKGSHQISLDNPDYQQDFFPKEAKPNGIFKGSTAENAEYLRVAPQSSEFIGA
In short: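 Readout: AlphaLISA SureFire Ultra signal in cell lysates, with acceptor beads for 1.5-2 h and donor beads overnight at room temperature in the dark. Beforehand, unstimulated cells in 10% FBS medium received compounds (10 points, 4-fold steps) for 4 h at 37° C. IC50 came from percent inhibition curves.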

[3] = biological target: EGFR L858R (Homo sapiens (Human), UniProt P00533, L858R); assay: Biochemical EGFR inhibition assay, EGFR L858R; settings: Caliper mobility shift; 1.0 mM ATP or ATP Km; read-out: Enz EGFR_L858R IC50
Chain of EGFR L858R (P00533 25-1210 L858R): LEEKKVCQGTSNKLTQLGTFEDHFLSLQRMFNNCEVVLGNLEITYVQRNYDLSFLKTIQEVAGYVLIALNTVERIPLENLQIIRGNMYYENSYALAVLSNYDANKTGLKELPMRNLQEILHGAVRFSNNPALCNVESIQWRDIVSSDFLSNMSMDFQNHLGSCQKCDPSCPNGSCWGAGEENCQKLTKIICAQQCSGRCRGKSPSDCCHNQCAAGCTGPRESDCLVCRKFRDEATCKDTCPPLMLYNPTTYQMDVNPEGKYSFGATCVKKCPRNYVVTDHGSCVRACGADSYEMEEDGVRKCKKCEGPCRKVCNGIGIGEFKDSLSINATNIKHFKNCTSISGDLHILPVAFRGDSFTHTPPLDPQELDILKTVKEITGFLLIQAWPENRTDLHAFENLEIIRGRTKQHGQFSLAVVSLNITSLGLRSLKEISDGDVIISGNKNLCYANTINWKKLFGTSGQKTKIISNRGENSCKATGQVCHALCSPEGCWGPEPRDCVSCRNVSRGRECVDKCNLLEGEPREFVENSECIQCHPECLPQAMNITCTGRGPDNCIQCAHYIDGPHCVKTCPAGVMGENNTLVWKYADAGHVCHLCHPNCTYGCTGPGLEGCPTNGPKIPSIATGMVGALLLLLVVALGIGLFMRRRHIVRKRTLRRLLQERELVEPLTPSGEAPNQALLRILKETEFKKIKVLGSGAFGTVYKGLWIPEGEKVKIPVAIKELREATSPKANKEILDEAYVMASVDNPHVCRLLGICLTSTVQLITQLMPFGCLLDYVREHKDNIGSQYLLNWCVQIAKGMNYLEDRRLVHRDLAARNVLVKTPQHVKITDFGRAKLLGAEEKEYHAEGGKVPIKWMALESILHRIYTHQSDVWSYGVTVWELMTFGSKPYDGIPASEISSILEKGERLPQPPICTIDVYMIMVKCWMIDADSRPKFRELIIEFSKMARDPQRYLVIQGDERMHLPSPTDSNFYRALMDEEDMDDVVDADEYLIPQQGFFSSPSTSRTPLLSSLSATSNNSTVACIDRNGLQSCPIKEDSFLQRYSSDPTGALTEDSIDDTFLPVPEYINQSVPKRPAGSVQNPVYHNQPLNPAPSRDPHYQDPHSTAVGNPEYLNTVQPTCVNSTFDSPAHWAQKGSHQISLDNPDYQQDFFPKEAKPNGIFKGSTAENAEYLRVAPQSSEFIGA

Chain of EGFR (d746-750) (P00533 other isoform, or with tags, fused parts or gaps del 1-694/del 746-750 limits assumed): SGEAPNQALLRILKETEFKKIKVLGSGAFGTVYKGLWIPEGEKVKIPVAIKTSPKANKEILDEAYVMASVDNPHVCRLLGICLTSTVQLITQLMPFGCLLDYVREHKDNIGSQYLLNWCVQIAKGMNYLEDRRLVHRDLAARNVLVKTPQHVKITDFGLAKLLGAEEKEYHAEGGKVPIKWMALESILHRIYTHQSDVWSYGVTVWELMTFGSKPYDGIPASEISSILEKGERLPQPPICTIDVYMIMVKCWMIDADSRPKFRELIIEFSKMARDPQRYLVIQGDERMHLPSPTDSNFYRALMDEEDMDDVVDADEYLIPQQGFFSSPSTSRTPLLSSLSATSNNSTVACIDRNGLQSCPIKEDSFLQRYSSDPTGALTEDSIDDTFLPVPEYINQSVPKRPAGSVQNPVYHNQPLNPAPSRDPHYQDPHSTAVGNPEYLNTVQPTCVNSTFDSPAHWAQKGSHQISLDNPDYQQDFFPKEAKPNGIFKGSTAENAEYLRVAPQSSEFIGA

IC50 [1] [nM]	IC50 [2] [nM]	IC50 [3] [nM]	SMILES
0.7	1.7	1.4	COc1cc2ncnc(-c3cn(C)nc3-c3ccccc3)c2cc1NC(=O)c1ccnc(C)c1 [Example 194, N-(7-methoxy-4-(1-methyl-3-phenyl-1H-pyrazol-4-yl)quinazolin-6-yl)-2-methylisonicotinamide]
0.7	1.8	1.1	COc1cc2ncnc(-c3cn(C)nc3-c3ccccc3)c2cc1NC(=O)c1cnn(C(C)C)c1 [Example 208, 1-isopropyl-N-(7-methoxy-4-(1-methyl-3-phenyl-1H-pyrazol-4-yl)quinazolin-6-yl)-1H-pyazole-4-carboxamide]
0.9	3	1.3	CCOc1cc2ncnc(-c3cn(CC)nc3-c3ccccc3)c2cc1CO [Example 124, (7-ethoxy-4-(1-ethyl-3-phenyl-1H-pyrazol-4-yl)quinazolin-6-yl)methanol]
0.8	1.5	1.5	COc1cc2ncnc(-c3cn(CC(F)F)nc3-c3ccccc3)c2cc1OC [Example 15, 4-(1-(2,2-difluoroethyl)-3-phenyl-1H-pyrazol-4-yl)-6,7-dimethoxyquinazoline]
2.8	12.4	8.3	COc1cc2ncnc(-c3cn(C)nc3-c3c(F)cccc3F)c2cc1OC(=O)N1CCOC[C@@H]1C [Example 67, 4-(3-(2,6-difluorophenyl)-1-methyl-1H-pyrazol-4-yl)-7-methoxyquinazolin-6-yl (S)-3-methylmorpholine-4-carboxylate]
1.3	1.2	2.1	COc1cc2ncnc(-c3cn(CCO)nc3-c3ccccc3)c2nc1NC(=O)C12CC(C1)C2 [Example 414, N-(4-(1-(2-hydroxyethyl)-3-phenyl-1H-pyrazol-4-yl)-7-methoxypyrido[3,2-d]pyrimidin-6-yl)bicyclo[1.1.1]pentane-1-carboxamide]
1.1	1.7	1.9	CCn1cc(C(=O)Nc2cc3c(-c4cn(C)nc4-c4ccccc4)ncnc3cc2OC)cn1 [Example 219, 1-ethyl-N-(7-methoxy-4-(1-methyl-3-phenyl-1H-pyrazol-4-yl)quinazolin-6-yl)-1H-pyrazole-4-carboxamide]
0.7	0.9	1.2	COc1cc2ncnc(-c3cn(C4CC4)nc3-c3ccccc3)c2nc1NC(=O)[C@@]12C[C@@H]1CN(C)C2 (single isomer, unassigned) [Example 406, (1S,5S)—N-(4-(1-cyclopropyl-3-phenyl-1H-pyrazol-4-yl)-7-methoxypyrido[3,2-d]pyrimidin-6-yl)-3-methyl-3-azabicyclo[3.1.0]hexane-1-carboxamide or (1R,5R)—N-(4-(1-cyclopropyl-3-phenyl-1H-pyrazol-4-yl)-7-methoxypyrido[3,2-d]pyrimidin-6-yl)-3-methyl-3-azabicyclo[3.1.0]hexane-1-carboxamide]
1.9	6.2	4	COc1cc2ncnc(-c3cn(C)nc3-c3ccccc3)c2cc1O[C@H]1CCOC1 [Example 13, (S)-7-methoxy-4-(1-methyl-3-phenyl-1H-pyrazol-4-yl)-6-((tetrahydrofuran-3-yl)oxy)quinazoline]
0.9	1.5	2	COc1cc2ncnc(-c3cn(C)nc3-c3ccccc3F)c2nc1NC(=O)[C@@]12COC[C@@H]1C2 (single isomer, unassigned) [Example 387, (1R,5R)—N-(4-(3-(2-fluorophenyl)-1-methyl-1H-pyrazol-4-yl)-7-methoxypyrido[3,2-d]pyrimidin-6-yl)-3-oxabicyclo[3.1.0]hexane-1-carboxamide or (1S,5S)—N-(4-(3-(2-fluorophenyl)-1-methyl-1H-pyrazol-4-yl)-7-methoxypyrido[3,2-d]pyrimidin-6-yl)-3-oxabicyclo[3.1.0]hexane-1-carboxamide]
3.6	10.7	8	COc1cc2ncnc(-c3cn(C)nc3-c3ccccc3)c2cc1NC(=O)N1C[C@@H](C)OC[C@@H]1C [Example 183, (2R,5S)-N-(7-methoxy-4-(1-methyl-3-phenyl-1H-pyrazol-4-yl)quinazolin-6-yl)-2,5-dimethylmorpholine-4-carboxamide]
0.7	1.4	1.9	COc1cc2ncnc(-c3cn(C)nc3-c3ccc(F)cc3)c2nc1NC(=O)[C@]12COC[C@H]1C2 (single isomer, unassigned) [Example 381, (1S,5S)—N-(4-(3-(4-fluorophenyl)-1-methyl-1H-pyrazol-4-yl)-7-methoxypyrido[3,2-d]pyrimidin-6-yl)-3-oxabicyclo[3.1.0]hexane-1-carboxamide or (1R,5R)—N-(4-(3-(4-fluorophenyl)-1-methyl-1H-pyrazol-4-yl)-7-methoxypyrido[3,2-d]pyrimidin-6-yl)-3-oxabicyclo[3.1.0]hexane-1-carboxamide]
1.3	2.3	2.6	COc1cc2ncnc(-c3cn(C)nc3-c3ccc(F)cc3)c2nc1NC(=O)[C@]12C[C@H]1CN(C)C2 (single isomer, unassigned) [Example 411, (1R,5R)—N-(4-(3-(4-fluorophenyl)-1-methyl-1H-pyrazol-4-yl)-7-methoxypyrido[3,2-d]pyrimidin-6-yl)-3-methyl-3-azabicyclo[3.1.0]hexane-1-carboxamide or (1S,5S)—N-(4-(3-(4-fluorophenyl)-1-methyl-1H-pyrazol-4-yl)-7-methoxypyrido[3,2-d]pyrimidin-6-yl)-3-methyl-3-azabicyclo[3.1.0]hexane-1-carboxamide]
1.2	1.5	2.2	COc1cc2ncnc(-c3cn(C)nc3-c3ccccc3)c2cc1-c1cn(C)nc1C [Example 150, 6-(1,3-dimethyl-1H-pyrazol-4-yl)-7-methoxy-4-(1-methyl-3-phenyl-1H-pyrazol-4-yl)quinazoline]
2.3	7.9	4.5	COc1cc2ncnc(-c3cn(C)nc3-c3ccccc3)c2cc1OC(=O)N1CCOC[C@H]1C [Example 61, 7-methoxy-4-(1-methyl-3-phenyl-1H-pyrazol-4-yl)quinazolin-6-yl (R)-3-methylmorpholine-4-carboxylate]
0.6	1.2	1.4	COc1cc2ncnc(-c3cn(C)nc3-c3ccccc3)c2nc1NC(=O)[C@@]12COC[C@@H]1C2 (single isomer, unassigned) [Example 431, (1R,5R)—N-(7-methoxy-4-(1-methyl-3-phenyl-1H-pyrazol-4-yl)pyrido[3,2-d]pyrimidin-6-yl)-3-oxabicyclo[3.1.0]hexane-1-carboxamide or (1S,5S)—N-(7-methoxy-4-(1-methyl-3-phenyl-1H-pyrazol-4-yl)pyrido[3,2-d]pyrimidin-6-yl)-3-oxabicyclo[3.1.0]hexane-1-carboxamide]
2.1	11.6	4	CCOc1cc2ncnc(-c3cn(C)nc3-c3ccccc3)c2cc1Cn1ncnc1C [Example 134, 7-ethoxy-6-((5-methyl-1H-1,2,4-triazol-1-yl)methyl)-4-(1-methyl-3-phenyl-1H-pyrazol-4-yl)quinazoline]
1.6	8	2.9	CC(C)Oc1cc2ncnc(-c3cn(C)nc3-c3ccccc3)c2cc1OC(C)C [Example 26, 6,7-diisopropoxy-4-(1-methyl-3-phenyl-1H-pyrazol-4-yl)quinazoline]
3.6	13.8	9	COc1cc2ncnc(-c3cn(C)nc3-c3ccccc3)c2cc1N1CC[C@@H](F)[C@H](O)C1 (single isomer, unassigned) [Example 173, (3R,4R)-4-fluoro-1-(7-methoxy-4-(1-methyl-3-phenyl-1H-pyrazol-4-yl)quinazolin-6-yl) piperidin-3-ol or (3S,4S)-4-fluoro-1-(7-methoxy-4-(1-methyl-3-phenyl-1H-pyrazol-4-yl)quinazolin-6-yl) piperidin-3-ol]
5.1	10.4	10.4	COc1cc2ncnc(-c3cn(C)nc3-c3ccccc3)c2cc1NC(=O)c1cncc(F)c1 [Example 327, 5-fluoro-N-(7-methoxy-4-(1-methyl-3-phenyl-1H-pyrazol-4-yl)quinazolin-6-yl)nicotinamide]
0.2	1	0.4	COc1cc2ncnc(-c3cn(C)nc3-c3ccc(F)cc3)c2cc1NC(=O)C1CC(F)(F)C1 [Example 212, 3,3-difluoro-N-(4-(3-(4-fluorophenyl)-1-methyl-1H-pyrazol-4-yl)-7-methoxyquinazolin-6-yl)cyclobutane-1-carboxamide]

SMILES	IC50 [1] [nM]	IC50 [2] [nM]	IC50 [3] [nM]
COc1cc2ncnc(-c3c(-c4ccccc4)nn(C)c3C)c2cc1OC(=O)N1CCN(C)C[C@@H]1C [Example 482, 4-(1,5-dimethyl-3-phenyl-1H-pyrazol-4-yl)-7-methoxyquinazolin-6-yl(S)-2,4-dimethylpiperazine-1-carboxylate]	97	320	207
[2H]C([2H])([2H])N1CCN(C(=O)Oc2cc3c(-c4cn(C)nc4-c4ccccc4)ncnc3cc2OC)[C@@H](C)C1 [Example 93, 7-methoxy-4-(1-methyl-3-phenyl-1H-pyrazol-4-yl)quinazolin-6-yl(S)-2-methyl-4-(methyl-d3) piperazine-1-carboxylate]	2.5	4.3	4.3

From patent publication US20250236608A1, “EGFR INHIBITORS” (Blueprint Medicines Corporation, priority 2022, published 2025)
